In one series the target is T1, human GPR120 (Homo sapiens, UniProt Q5NUL3).
T1 construct: expressed in transfected cells
T1 sequence (Q5NUL3 1-361): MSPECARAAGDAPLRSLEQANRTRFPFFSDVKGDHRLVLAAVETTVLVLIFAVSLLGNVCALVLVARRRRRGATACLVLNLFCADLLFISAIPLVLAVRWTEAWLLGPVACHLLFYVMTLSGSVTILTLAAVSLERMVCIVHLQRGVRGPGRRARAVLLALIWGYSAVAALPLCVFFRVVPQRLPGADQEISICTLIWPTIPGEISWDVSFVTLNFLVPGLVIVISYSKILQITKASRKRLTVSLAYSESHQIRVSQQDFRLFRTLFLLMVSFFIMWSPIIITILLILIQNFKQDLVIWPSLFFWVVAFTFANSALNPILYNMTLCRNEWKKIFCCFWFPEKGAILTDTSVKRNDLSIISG
Nature of the series: Ca2+ influx assay in CHO cells stably expressing human GPR120. In kind it is cell-based. The following applies: CHO cells expressing human GPR120, Ca2+ signal, mean of three determinations. How it is done:
Chinese hamster ovary (CHO) cells stably expressing human GPR120 were suspended in growth media at a concentration of 1 × 10^6 per mL. […] The cell plate was removed from the incubator, the medium was gently discarded, and the wells were washed with 100 μL of Hank’s balanced salt solution (HBSS) per well. The cells were then incubated in HBSS containing fluorescent calcium indicator Fluo-4 AM (2.5 μg/mL) and probenecid (2.5 mmol/L) for 90 min. […] The test compounds at various concentrations were added to the cells, and intracellular Ca^2+ concentrations were measured using FlexStation3 Molecular Devices. The GPR120 agonistic activities of the test compounds were expressed as A/B (increase in the intracellular Ca^2+ concentration (A) in the test compound-treated cells and (B) in vehicle-treated cells). The EC50 value of each compound was calculated using Prism software (version 5.0; GraphPad Software, San Diego, CA, USA).

In series [1] the target is T2, hGPR40 (Homo sapiens, UniProt O14842).
T2 construct: expressed in transfected cells; host or cells: CHO cells
T2 sequence (O14842 whole entry): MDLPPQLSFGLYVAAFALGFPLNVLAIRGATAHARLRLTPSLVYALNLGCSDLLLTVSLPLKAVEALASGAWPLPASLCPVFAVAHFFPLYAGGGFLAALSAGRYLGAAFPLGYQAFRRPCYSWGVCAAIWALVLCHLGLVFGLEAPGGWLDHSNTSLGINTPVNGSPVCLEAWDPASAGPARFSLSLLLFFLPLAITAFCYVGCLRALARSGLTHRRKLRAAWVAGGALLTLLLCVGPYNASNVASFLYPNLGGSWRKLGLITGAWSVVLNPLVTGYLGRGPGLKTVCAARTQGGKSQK
The series can be described thus: Calcium influx assay on hGPR40-expressing CHO cells. The format is cell-based. The following applies: for Selectivity: GPR40 EC50 over GPR120 EC50; for EC50: hGPR40-expressing CHO cells, calcium influx, mean of three determinations, read-out: GPR40 (EC50).

Another series relates to hGPR120. Also noted: method as in PMID 22519963, PMID 29100735, PMID 28642104, PMID 28947942, PMID 28374589. The following applies: Figure 1, literature values; cited from earlier work.
Series [2] addresses T2, hGPR40. Also noted: method as in PMID 22519963, PMID 29100735, PMID 28642104, PMID 28947942, PMID 28374589. The following applies: cited from earlier work.
The nature of series [3]: Pharmacokinetic analysis in C57BL/6 mice after gavage administration. The format is in vivo. The following applies: male, mouse, plasma, po, 10 mg/kg gavage, 0.5% MC; for AUC / Cmax / half-life: mean ± SEM of four mice. How it is done:
Plasma was collected with a pipette and the proteins in the plasma were precipitated with two volumes of acetonitrile containing an internal standard. This was followed by centrifugation at 15.680 g for 10 min after vortexing for 5 min. The supernatant was diluted with acetonitrile and 10 μL of supernatant was analyzed by Waters LC-PDA-MS/MS to determine plasma drug levels. Pharmacokinetic parameters were determined using the mean data from four mice at each time point. Statistical analysis of the data was performed using the DAS 2.1.1 statistical software program (BioVoice, Shanghai, China).

Another series deals with normal ICR mice. The series can be described thus: Oral glucose tolerance test in normal ICR mice. In kind it is in vivo. The following applies: fasted ICR mice. The procedure:
Male ICR starved overnight (12 h) were weighed and randomly divided into six groups (eight mice per group). […] Blood samples were collected via the tail tip before drug administration (-30 min), before glucose loading (time 0), and 15, 30, 60, and 120 min after glucose loading. Blood glucose levels were measured using blood glucose test strips (Sannuo GA-3 type, Changsha, China).

In another series the test system is DIO mice. The series can be described thus: Anti-hyperglycemic effects (oGTT) in diet-induced obese (DIO) mice. In kind it is in vivo, C57BL/6 mice. The following applies: fasted DIO mice, 20 mg/kg gavage 30 min before oral glucose 2 g/kg. From the text: After 1 week of adaptation, male C57BL/6 mice weighing 18–22 g, were fed a high-fat diet (45% calories from fat, from Mediscience Ltd., Yangzhou, China) ad libitum for an additional 8 weeks to induce insulin resistance. […] Blood samples were collected and measured in accordance with the oral glucose tolerance test in normal ICR mice.

Like-named read-outs stand apart in the source and are kept apart here.

What is called EC50 is the midpoint of the concentration-response curve. As a reminder, the melting point is the temperature of the solid-liquid transition. For orientation: Tmax means the time from dosing to the highest level. By AUC is commonly meant concentration integrated over time. As usually defined, the Cmax is the highest concentration seen after dosing. In general, half-life refers to the time in which the quantity being followed falls by half. Low readings indicate rapid decline, high ones slow decline.

As to `Cc1ccc(-c2ccc(F)cc2COc2ccc(OCC(=O)O)c(F)c2)cc1` [Compound 7f, 2-(2-Fluoro-4-((4-fluoro-4′-methyl-[1,1′-biphenyl]-2-yl)methoxy)phenoxy)acetic acid], the melting point fell in the range of 109 to 110 °C. The EC50 at human GPR120 stood at 106 nM.

The compound `Cc1ccc(-c2ccc(F)cc2COc2ccc(C(C)CC(=O)O)cc2)cc1` (stereo not drawn) [Compound 2f, 3-(4-((4-Fluoro-4′-methyl-[1,1′-biphenyl]-2-yl)methoxy)phenyl)butanoic acid] showed a melting point of 100 to 101 °C. The same compound came in with an EC50 on human GPR120 of 52.8 nM. In addition, at hGPR40 [1], the Selectivity is 1373 and the EC50 is 72500 nM.

`Cc1ccc(-c2ccc(F)cc2COc2ccc(OCC(=O)O)c(C)c2)cc1` [Compound 6f, 2-(4-((4-Fluoro-4′-methyl-[1,1′-biphenyl]-2-yl)methoxy)-2-methylphenoxy)acetic acid] gave a melting point of 115 to 116 °C. In addition, on human GPR120, the EC50 was 72.7 nM. At hGPR40 [1], the Selectivity stood at 810 and the EC50 turned out to be 58900 nM.

Turning to `COc1ccc2c(c1)CCCN2C(=O)COc1ccc(OCC(=O)O)c(C)c1` [Compound 11h, 2-(4-(2-(6-Methoxy-3,4-dihydroquinolin-1(2H)-yl)-2-oxoethoxy)-2-methylphenoxy)acetic acid], the melting point fell in the range of 141 to 142 °C. For the same compound, the EC50 at human GPR120 was determined as 146 nM.

Turning to `Cc1ccc(-c2ccc(F)cc2COc2ccc(CC(C)C(=O)O)cc2)cc1` (stereo not drawn) [Compound 1f, 3-(4-((4-Fluoro-4′-methyl-[1,1′-biphenyl]-2-yl)methoxy)phenyl)-2-methylpropanoic acid], the melting point fell in the range of 103 to 104 °C. At human GPR120, this compound had an EC50 of 146 nM.

For the compound `O=S1(=O)c2ccccc2CN1c1cc(F)cc(Oc2ccccn2)c1` [Compound 6], the EC50 with hGPR120 was 123 nM. For the same compound, the hGPR40 activity entry at hGPR40 [2] (at 100 uM, Figure 1, literature value) was “inactive”.

For `Cc1ccc2c(c1)CCCN2C(=O)COc1ccc(OCC(=O)O)c(C)c1` [Compound 11g, 2-(2-Methyl-4-(2-(6-methyl-3,4-dihydroquinolin-1(2H)-yl)-2-oxoethoxy)phenoxy)acetic acid], the melting point fell in the range of 147 to 148 °C. For the same compound, the EC50 at human GPR120 is 83.4 nM. Also, at hGPR40 [1], the Selectivity stood at 1036 and the EC50 amounted to 86400 nM. In series [3], the time of peak concentration (Tmax) is 0.5 h, the AUC was 6710 ± 467 ng·h/mL, the Cmax came to 1850 ± 102 ng/mL and the half-life was 1.52 ± 0.37 h.

Turning to `O=C(O)CCc1cc(F)c(OCc2c(-c3ccc(Cl)cc3F)nsc2C(F)(F)F)c(F)c1` [Compound 3], the EC50 in the series on hGPR120 is 42 nM; at hGPR40 [2] (Figure 1, literature value), > 5000 nM.

Compound `COc1ccc2c(c1)CCCN2C(=O)COc1ccc(C(C)CC(=O)O)cc1` (stereo not drawn) [Compound 11c, 3-(4-(2-(6-Methoxy-3,4-dihydroquinolin-1(2H)-yl)-2-oxoethoxy)phenyl)butanoic acid] came in with a melting point of 141 to 142 °C. This compound returned an EC50 at human GPR120 of 99.6 nM.

Take `Cc1cc(OCC(=O)N2CCCc3ccccc32)ccc1OCC(=O)O` [Compound 11e, 2-(4-(2-(3,4-Dihydroquinolin-1(2H)-yl)-2-oxoethoxy)-2-methylphenoxy)acetic acid]: the melting point is 138 to 139 °C. The EC50 on human GPR120 was 255 nM.

`Cc1ccc(-c2ccc(F)cc2COc2ccc(CCC(=O)O)c(F)c2)cc1` [Compound 4f, 3-(2-Fluoro-4-((4-fluoro-4′-methyl-[1,1′-biphenyl]-2-yl)methoxy)phenyl)propanoic acid] displayed a melting point of 101 to 102 °C. In addition, on human GPR120, the response was half-maximal at 110 nM (EC50).

Consider `CC(CC(=O)O)c1ccc(OCC(=O)N2CCCc3ccccc32)cc1` (stereo not drawn) [Compound 11a, 3-(4-(2-(3,4-Dihydroquinolin-1(2H)-yl)-2-oxoethoxy)phenyl)butanoic acid], for which the melting point fell in the range of 117 to 118 °C. At human GPR120, this compound gave a concentration giving a half-maximal response (EC50) of 113 nM.

As for `Cc1ccc(-n2nc(C)c3cnc(-c4ccc([C@H]5C[C@@H]5C(=O)O)cc4)cc32)nc1` [Compound 4], the EC50 in the series on hGPR120 is 740 nM; at hGPR40 [2] (Figure 1, literature values), > 100000 nM.

On to `CC(CC(=O)O)c1ccc(OCC(=O)N2CCCc3cc(F)ccc32)cc1` (stereo not drawn) [Compound 11d, 3-(4-(2-(6-Fluoro-3,4-dihydroquinolin-1(2H)-yl)-2-oxoethoxy)phenyl)butanoic acid], for which the melting point lay in the range of 124 to 130 °C. In addition, the response at human GPR120 was half-maximal at 187 nM (EC50).

Compound `Cc1ccc(-c2ccc(F)cc2COc2ccc(OCC(=O)O)cc2)cc1` [Compound 5f, 2-(4-((4-Fluoro-4′-methyl-[1,1′-biphenyl]-2-yl)methoxy)phenoxy)acetic acid] returned a melting point of 119 to 120 °C. On human GPR120, this compound gave an EC50 of 103 nM.

For the compound `Cc1ccc2c(c1)CCCN2C(=O)COc1ccc(C(C)CC(=O)O)cc1` (stereo not drawn) [Compound 11b, 3-(4-(2-(6-Methyl-3,4-dihydroquinolin-1(2H)-yl)-2-oxoethoxy)phenyl)butanoic acid], the melting point was 115 to 116 °C. This compound also returned a half-maximal effective concentration (EC50) at human GPR120 of 71.2 nM. Moreover, on hGPR40 [1], the Selectivity was determined as 1159 and the EC50 came out at 82500 nM. Besides, in series [3], the time of peak concentration (Tmax) is 0.5 h, the exposure (AUC) came to 9050 ± 435 ng·h/mL, the Cmax came to 2530 ± 115 ng/mL and the half-life was 1.78 ± 0.42 h. The “anti-hyperglycemic effects compared with TUG-891” value with normal ICR mice (30 mg/kg, at 30 min after the oral glucose challenge) was “better than TUG-891”. For the same compound, in the series on normal ICR mice (dose of 100 mg/kg by gavage), the hypoglycemia entry is reported as “no hypoglycemia was observed”. Also, in the series with normal ICR mice (gavage 20 mg/kg 30 min before oral glucose 3.0 g/kg), the “blood glucose during oGTT” value is “significantly reduced blood glucose”. Further, the “blood glucose levels during oGTT” value in the series on normal ICR mice (gavage 10, 20, 30 and 100 mg/kg 30 min before oral glucose 3.0 g/kg) is reported as “lowered the blood glucose levels in a dose-dependent manner”. Besides, in the series on DIO mice, the “anti-diabetic effects (blood glucose during oGTT)” value is “equivalent to TUG-891” and the “insulin levels at 30 min after oral administration of glucose” value is “significantly increased insulin levels”.

`Cc1cc(OCC(=O)N2CCCc3cc(F)ccc32)ccc1OCC(=O)O` [Compound 11f, 2-(4-(2-(6-Fluoro-3,4-dihydroquinolin-1(2H)-yl)-2-oxoethoxy)-2-methylphenoxy)acetic acid] registered a melting point of 152 to 153 °C. In addition, a half-maximal response on human GPR120 (EC50) required 204 nM.

On to `CO[C@H]1C[C@H](Oc2cc(F)c(F)c(-c3c(F)cc(OCCCC(=O)O)cc3F)c2)C1` [Compound 5], for which the EC50 with hGPR120 was 93 nM; at hGPR40 [2] (Figure 1, literature values), > 100000 nM.

In turn, `Cc1ccc(-c2ccc(F)cc2COc2ccc(CCC(=O)O)c(C)c2)cc1` [Compound 3f, 3-(4-((4-Fluoro-4′-methyl-[1,1′-biphenyl]-2-yl)methoxy)-2-methylphenyl)propanoic acid] showed a melting point of 116 to 117 °C. This compound also registered an EC50 at human GPR120 of 90.2 nM.

Values taken from paper PMC8624523, “Novel GPR120 Agonists with Improved Pharmacokinetic Profiles for the Treatment of Type 2 Diabetes” (Molecules, 2021).
